In ChEMBL document CHEMBL3875210, “Synthesis, functionalization and biological activity of arylated derivatives of (+)-estrone” (Bioorg Med Chem, 2017):

Tests used:
[1] = test system: pancreatic lipase (Sus scrofa); assay: Inhibition of pancreatic lipase (unknown origin) at 100 uM using p-nitrophenylbutyrate as substrate preincubated for 10 mins followed by substrate addition measured after 20 mins
[2] = molecular target: Pancreatic triacylglycerol lipase (Sus scrofa) (UniProt P00591); assay: Inhibition of porcine pancreatic lipase using p-nitrophenylbutyrate as substrate preincubated for 10 mins followed by substrate addition measured after 20 mins
[3] = Inhibition of pancreatic lipase (unknown origin) assessed as decrease in release of fatty acid from triolein incubated for 30 mins by phenolphthalein-baed titrimetric method; design: species or system Homo sapiens

Structure (SMILES)	IC50 [2]	also measured
C[C@]12CC[C@@H]3c4cc(-c5ccccc5F)c(O)c(-c5ccccc5F)c4CC[C@H]3[C@@H]1CCC2=O		inhibition [1]: 43%
C[C@]12CC[C@@H]3c4cc(-c5ccccc5F)c5oc6ccccc6c5c4CC[C@H]3[C@@H]1CCC2=O	0.93 µM	
C[C@]12CC[C@@H]3c4ccc(O)c(-c5ccccc5)c4CC[C@H]3[C@@H]1CCC2=O	1.54 µM	
CC(C)(C)c1ccc(-c2c(O)ccc3c2CC[C@@H]2[C@@H]3CC[C@]3(C)C(=O)CC[C@@H]23)cc1	1.78 µM	
C[C@H]1[C@H](C)CC[C@]2(C(=O)O)CC[C@]3(C)C(=CC[C@@H]4[C@@]5(C)CC[C@H](O)C(C)(C)[C@@H]5CC[C@]43C)[C@H]12 [URSOLIC ACID]		IC50 ([3]; read-out: IC50): 15.8 µM
C[C@]12CC[C@@H]3c4ccc(O)c(-c5ccc(C(F)(F)F)cc5)c4CC[C@H]3[C@@H]1CCC2=O	0.82 µM	
C[C@]12CC[C@@H]3c4cc(-c5ccccc5)c(O)cc4CC[C@H]3[C@@H]1CCC2=O		inhibition [1]: 39%
COc1ccc(-c2cc3c(c(-c4ccc(OC)cc4)c2O)CC[C@@H]2[C@@H]3CC[C@]3(C)C(=O)CC[C@@H]23)cc1	5.28 µM	
C[C@]12CC[C@@H]3c4cc(-c5ccc(OC(F)(F)F)cc5)c(O)c(-c5ccc(OC(F)(F)F)cc5)c4CC[C@H]3[C@@H]1CCC2=O	1.21 µM	
C[C@]12CC[C@@H]3c4cc(-c5cccc(F)c5)c(O)cc4CC[C@H]3[C@@H]1CCC2=O	16.3 µM	
C[C@]12CC[C@@H]3c4ccc5oc6ccccc6c5c4CC[C@H]3[C@@H]1CCC2=O		inhibition [1]: 32%
Oc1cc(O)c2c(c1)O[C@H](c1ccc(O)c(O)c1)[C@H](O)C2 [(-)-EPICATECHIN]		IC50 ([3]; read-out: IC50): > 20 µM
CC(C)(C)c1ccc(-c2cc3c(c(-c4ccc(C(C)(C)C)cc4)c2O)CC[C@@H]2[C@@H]3CC[C@]3(C)C(=O)CC[C@@H]23)cc1	8.29 µM	
COc1cc(OC)cc(-c2cc3c(cc2O)CC[C@@H]2[C@@H]3CC[C@]3(C)C(=O)CC[C@@H]23)c1	16.4 µM	
COc1ccc(-c2c(O)ccc3c2CC[C@@H]2[C@@H]3CC[C@]3(C)C(=O)CC[C@@H]23)c(OC)c1OC		inhibition [1]: 43%
C[C@]12CC[C@@H]3c4ccc(O)c(-c5ccc(OC(F)(F)F)cc5)c4CC[C@H]3[C@@H]1CCC2=O	6.42 µM	
C[C@]12CC[C@@H]3c4ccc5oc(=O)c6ccccc6c5c4CC[C@H]3[C@@H]1CCC2=O	1.36 µM	
C[C@]12CC[C@@H]3c4ccc(O)c(-c5cccc(F)c5)c4CC[C@H]3[C@@H]1CCC2=O	1.34 µM	
C[C@]12CC[C@@H]3c4cc(-c5ccc(C(F)(F)F)cc5)c(O)cc4CC[C@H]3[C@@H]1CCC2=O	16.3 µM	
C[C@]12CC[C@@H]3c4cc(-c5cccc(F)c5)c(O)c(-c5cccc(F)c5)c4CC[C@H]3[C@@H]1CCC2=O	7.19 µM	

Structure (SMILES)	IC50 [2]	also measured
Cc1cc(C)cc(-c2cc3c(c(-c4cc(C)cc(C)c4)c2O)CC[C@@H]2[C@@H]3CC[C@]3(C)C(=O)CC[C@@H]23)c1	24.1 µM	
COc1ccc(-c2cc3c(c(-c4ccc(OC)c(OC)c4OC)c2O)CC[C@@H]2[C@@H]3CC[C@]3(C)C(=O)CC[C@@H]23)c(OC)c1OC		inhibition [1]: 37%
C[C@]12CC[C@@H]3c4cc(-c5ccc(C(F)(F)F)cc5)c(O)c(-c5ccc(C(F)(F)F)cc5)c4CC[C@H]3[C@@H]1CCC2=O		inhibition [1]: 42%
C[C@]12CC[C@@H]3c4ccc(O)c(-c5ccc(Cl)cc5)c4CC[C@H]3[C@@H]1CCC2=O		inhibition [1]: 45%
Cc1ccc(-c2c(O)ccc3c2CC[C@@H]2[C@@H]3CC[C@]3(C)C(=O)CC[C@@H]23)cc1		inhibition [1]: 38%
CCc1ccc(-c2cc3c(c(-c4ccc(CC)cc4)c2O)CC[C@@H]2[C@@H]3CC[C@]3(C)C(=O)CC[C@@H]23)cc1		inhibition [1]: 41%
Cc1ccc(-c2cc3c(cc2O)CC[C@@H]2[C@@H]3CC[C@]3(C)C(=O)CC[C@@H]23)cc1	1.21 µM	
C[C@]12CC[C@@H]3c4cc(-c5ccc(OC(F)(F)F)cc5)c(O)cc4CC[C@H]3[C@@H]1CCC2=O	2.54 µM	
Cc1ccc(-c2cc3c(c(-c4ccc(C)cc4)c2O)CC[C@@H]2[C@@H]3CC[C@]3(C)C(=O)CC[C@@H]23)cc1		inhibition [1]: 39%
C[C@]12CC[C@@H]3c4cc(-c5ccc(Cl)cc5)c(O)c(-c5ccc(Cl)cc5)c4CC[C@H]3[C@@H]1CCC2=O	1.75 µM	
CC(C)(C)c1ccc(-c2cc3c(cc2O)CC[C@@H]2[C@@H]3CC[C@]3(C)C(=O)CC[C@@H]23)cc1	5.66 µM	
COc1ccc(-c2c(O)ccc3c2CC[C@@H]2[C@@H]3CC[C@]3(C)C(=O)CC[C@@H]23)cc1		inhibition [1]: 42%
C[C@]12CC[C@@H]3c4cc(-c5ccccc5)c(O)c(-c5ccccc5)c4CC[C@H]3[C@@H]1CCC2=O	25.6 µM	
Cc1cc2c(c(O)c1-c1c(C)cc3c(c1O)C(=O)c1c(O)cc(O)cc1C3=O)C(=O)c1c(O)cccc1C2=O [CASSIAMIN A]		IC50 ([3]; read-out: IC50): 41.8 µM
COc1ccc(-c2cc3c(cc2O)CC[C@@H]2[C@@H]3CC[C@]3(C)C(=O)CC[C@@H]23)cc1	12.3 µM	
CC(C)c1cc2c(c(O)c1O)[C@@]1(C(=O)O)CCCC(C)(C)[C@@H]1CC2 [CARNOSIC ACID]		IC50 [3]: 12 µg/mL
C[C@]12CC[C@@H]3c4cc(-c5ccc(F)cc5)c(O)c(-c5ccc(F)cc5)c4CC[C@H]3[C@@H]1CCC2=O	0.82 µM	
CCc1ccc(-c2c(O)ccc3c2CC[C@@H]2[C@@H]3CC[C@]3(C)C(=O)CC[C@@H]23)cc1	13.6 µM	
COc1cc(OC)cc(-c2c(O)ccc3c2CC[C@@H]2[C@@H]3CC[C@]3(C)C(=O)CC[C@@H]23)c1	59.7 µM	
